What was measured:
Type in all cases: biochemical
human FAK = molecular target: T1, human FAK (Homo sapiens, UniProt Q05397); test: FAK autophosphorylation inhibition, time resolved fluorescence (HTRF) assay; settings: 10 μM (values without asterisk); read-out: FAK % inhib at 10 μM
T1 construct: The complete cDNA of human FAK; made in house; host or cells: baculovirus expression system (vector pFastBac HTc)
Method in brief: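 His-tagged full-length human FAK from baculovirus (6.6 µg/ml) self-phosphorylates with 15 µM ATP in HEPES pH 7.2, MgCl2, vanadate, 1 h at 37 °C. HTRF detection (Eu-anti-phosphotyrosine / XL665-anti-His), 665/620 nm ratio; % inhibition vs untreated control, duplicate mean.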

human KDR enzyme = molecular target: T2, human KDR enzyme (Homo sapiens, UniProt P35968); test: KDR substrate (PLCγ) phosphorylation, scintillation assay; settings: 10 μM; for inhibition at 10 µM: read-out: KDR % inhib at 10 μM
T2 construct: The cytoplasmic domain of the human KDR enzyme; GST; made in house; host or cells: SF21 insect cells (baculovirus)
Method in brief: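 GST-fused human KDR cytoplasmic domain from SF21 cells (about 60% pure, 100 ng) phosphorylated 2 μg of GST-PLCγ SH2-SH3 fragment. The trigger solution held γ33P-ATP with 2 μM cold ATP, in MOPS buffer pH 7.2 with Mg2+, Mn2+, vanadate and NaF. Reactions ran 1 h at 37 °C, were stopped with EDTA and counted by scintillation; results are % inhibition versus the no-compound control.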

Aurora2 kinase = molecular target: T3, Aurora2 kinase (Homo sapiens, UniProt O14965); test: Aurora2 kinase radioactivity scintillation assay using nickel chelate (NuMA substrate); settings: 10 μM; read-out: Aurora2 % inhib at 10 μM
T3 construct: A complete recombinant Aurora2 enzyme; His tag (N); made in house; host or cells: E. coli
T3 sequence (O14965 1-403): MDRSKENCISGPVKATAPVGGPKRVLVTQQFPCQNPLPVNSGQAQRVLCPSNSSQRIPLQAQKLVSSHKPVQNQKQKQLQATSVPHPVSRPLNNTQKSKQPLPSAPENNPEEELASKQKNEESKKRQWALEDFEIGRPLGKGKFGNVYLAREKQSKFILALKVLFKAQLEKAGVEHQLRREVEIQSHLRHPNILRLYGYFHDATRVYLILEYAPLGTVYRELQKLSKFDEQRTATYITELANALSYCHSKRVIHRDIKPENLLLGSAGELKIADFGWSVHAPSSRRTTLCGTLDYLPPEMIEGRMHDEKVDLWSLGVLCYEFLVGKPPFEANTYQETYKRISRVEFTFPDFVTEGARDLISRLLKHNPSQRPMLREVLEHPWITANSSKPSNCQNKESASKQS
Method in brief: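 His-tagged full-length Aurora2 (0.02 μM, E. coli) phosphorylating His-tagged NuMA C-terminal fragment (0.5 μM) with 1 μM ATP plus [33P]-ATP, 30 min at 37 °C, pH 7.5 Tris buffer with MgCl2. Nickel-chelate scintillation read; percent inhibition versus no-compound control.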

[1] = molecular target: T4, human IGF1R cytoplasmic domain (Homo sapiens, UniProt P08069); test: IGF1R autophosphorylation inhibition, time resolved fluorescence (HTRF) assay; settings: 10 μM; read-out: IGF1R % inhib at 10 μM
T4 construct: The human IGF1R cytoplasmic domain was cloned; made in house; host or cells: SF21 insect cells (baculovirus)
Method in brief: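 GST-tagged human IGF1R cytoplasmic domain from SF21 cells incubated with compound in 50 mM Hepes pH 7.5, 5 mM MnCl2, 50 mM NaCl, […] ATP. Autophosphorylation detected by HTRF (Eu-K anti-phosphotyrosine, XL665 anti-GST) after EDTA/KF stop; percentage inhibition versus no-compound control.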

T2 sequence (P35968 786-1356 limits assumed): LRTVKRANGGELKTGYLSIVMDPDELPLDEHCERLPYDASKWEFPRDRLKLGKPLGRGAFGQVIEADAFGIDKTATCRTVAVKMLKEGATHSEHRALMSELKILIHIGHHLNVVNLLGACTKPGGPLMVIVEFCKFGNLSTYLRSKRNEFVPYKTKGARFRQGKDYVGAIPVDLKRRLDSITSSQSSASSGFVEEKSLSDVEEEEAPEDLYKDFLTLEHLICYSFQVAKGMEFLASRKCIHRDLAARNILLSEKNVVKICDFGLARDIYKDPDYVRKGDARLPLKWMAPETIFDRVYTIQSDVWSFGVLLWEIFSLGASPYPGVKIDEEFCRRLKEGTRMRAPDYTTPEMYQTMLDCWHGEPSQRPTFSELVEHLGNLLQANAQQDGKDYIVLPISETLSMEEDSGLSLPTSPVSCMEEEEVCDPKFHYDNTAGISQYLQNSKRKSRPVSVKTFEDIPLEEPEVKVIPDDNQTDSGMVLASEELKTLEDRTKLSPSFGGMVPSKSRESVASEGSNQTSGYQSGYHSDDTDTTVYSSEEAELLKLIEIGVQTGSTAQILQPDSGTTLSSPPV
T1 sequence (Q05397 whole entry): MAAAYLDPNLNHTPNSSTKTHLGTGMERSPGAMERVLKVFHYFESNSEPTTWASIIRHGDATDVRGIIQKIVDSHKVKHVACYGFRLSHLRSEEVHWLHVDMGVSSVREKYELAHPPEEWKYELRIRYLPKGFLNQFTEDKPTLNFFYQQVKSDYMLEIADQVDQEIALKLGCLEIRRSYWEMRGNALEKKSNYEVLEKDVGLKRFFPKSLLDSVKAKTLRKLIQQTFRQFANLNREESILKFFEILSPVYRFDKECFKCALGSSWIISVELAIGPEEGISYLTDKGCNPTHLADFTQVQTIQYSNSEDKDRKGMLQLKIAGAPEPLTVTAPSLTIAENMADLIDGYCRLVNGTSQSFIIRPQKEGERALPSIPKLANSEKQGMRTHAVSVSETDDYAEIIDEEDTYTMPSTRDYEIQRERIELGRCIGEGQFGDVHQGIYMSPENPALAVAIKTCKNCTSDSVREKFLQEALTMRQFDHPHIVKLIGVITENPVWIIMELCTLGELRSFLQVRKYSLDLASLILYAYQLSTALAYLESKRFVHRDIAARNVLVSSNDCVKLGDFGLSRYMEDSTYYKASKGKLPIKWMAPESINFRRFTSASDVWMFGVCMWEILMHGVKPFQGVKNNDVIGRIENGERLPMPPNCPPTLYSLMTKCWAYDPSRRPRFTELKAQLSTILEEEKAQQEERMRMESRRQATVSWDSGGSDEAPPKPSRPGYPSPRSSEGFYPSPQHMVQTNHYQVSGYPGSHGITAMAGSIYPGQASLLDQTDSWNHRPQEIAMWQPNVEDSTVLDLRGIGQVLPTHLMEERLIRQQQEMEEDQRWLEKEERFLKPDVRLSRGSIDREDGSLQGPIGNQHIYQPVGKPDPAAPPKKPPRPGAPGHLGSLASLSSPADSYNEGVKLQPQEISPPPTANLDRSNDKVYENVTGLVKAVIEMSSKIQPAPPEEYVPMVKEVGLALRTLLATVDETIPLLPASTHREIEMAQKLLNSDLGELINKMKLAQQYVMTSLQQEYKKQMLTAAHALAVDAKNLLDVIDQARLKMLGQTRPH
T4 sequence (P08069 960-1367 limits assumed): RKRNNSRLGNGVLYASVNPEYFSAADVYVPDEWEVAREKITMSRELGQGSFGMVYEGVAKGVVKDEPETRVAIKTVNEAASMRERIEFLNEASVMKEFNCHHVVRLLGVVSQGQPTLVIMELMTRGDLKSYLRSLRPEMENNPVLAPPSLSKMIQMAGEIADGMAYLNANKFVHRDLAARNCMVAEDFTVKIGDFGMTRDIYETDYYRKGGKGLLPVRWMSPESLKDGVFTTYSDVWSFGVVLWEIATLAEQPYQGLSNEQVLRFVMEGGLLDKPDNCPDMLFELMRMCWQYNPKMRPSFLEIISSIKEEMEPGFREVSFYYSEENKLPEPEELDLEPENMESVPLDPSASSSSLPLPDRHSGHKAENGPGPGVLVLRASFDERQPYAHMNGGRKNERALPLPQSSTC

inhibition at 10 µM (human FAK)	inhibition at 10 µM (human KDR enzyme)	inhibition at 10 µM (Aurora2 kinase)	inhibition at 10 µM [1]	KDR % inhib at 10 μM (human KDR enzyme)	Structure (SMILES)
95%	21%	79%	45%	–	CS(=O)(=O)c1ccccc1S(=O)(=O)Nc1ccc2[nH]nc(-c3cc(Br)cc(Br)c3)c2c1 [Example 211, N-[3-(3,5-Dibromophenyl)-1H-indazol-5-yl]-2-methanesulfonyl-benzenesulfonamide]
84%	39%	30%	28%	–	CS(=O)(=O)c1ccccc1S(=O)(=O)Nc1ccc2[nH]nc(-c3cc(C(F)(F)F)cc(C(F)(F)F)c3)c2c1 [Example 101, N-[3-(3,5-bistrifluoromethylphenyl)-1H-indazol-5-yl]-2-methylsulfonylbenzenesulfonamide]
70%	72%	100%	69%	–	N#Cc1ccccc1S(=O)(=O)Nc1ccc2[nH]nc(-c3ccccc3)c2c1 [Example 144, 2-Cyano-N-(3-phenyl-1H-indazol-5-yl)-benzenesulfonamide]
97%	79%	96%	83%	–	CS(=O)(=O)c1ccccc1S(=O)(=O)Nc1ccc2[nH]nc(-c3ccc(O)cc3)c2c1 [Example 202, N-[3-(4-Hydroxyphenyl)-1H-indazol-5-yl]-2-methanesulfonyl-benzenesulfonamide]
91%	44%	90%	77%	–	CS(=O)(=O)c1ccccc1S(=O)(=O)Nc1ccc2[nH]nc(-c3ccc(F)c(Cl)c3)c2c1 [Example 167, N-[3-(3-Chloro-4-fluoro-phenyl)-1H-indazol-5-yl]-2-methanesulfonyl-benzenesulfonamide]
61%	65%	89%	75%	–	CS(=O)(=O)c1ccccc1S(=O)(=O)Nc1ccc2[nH]nc(-c3ccc(Br)cc3)c2c1 [Example 161, N-[3-(4-Bromophenyl)-1H-indazol-5-yl]-2-methanesulfonyl-benzenesulfonamide]
87%	45%	87%	27%	–	COc1ccc(-c2n[nH]c3ccc(NS(=O)(=O)c4ccccc4S(C)(=O)=O)cc23)c(OC)c1 [Example 199, 2-Methanesulfonyl-N-[3-(2,4-dimethoxyphenyl)-1H-indazol-5-yl]benzenesulfonamide]
96%	61%	93%	73%	–	CS(=O)(=O)c1ccccc1S(=O)(=O)Nc1ccc2[nH]nc(-c3cccc(Br)c3)c2c1 [Example 184, N-[3-(3-Bromophenyl)-1H-indazol-5-yl]-2-methanesulfonyl-benzenesulfonamide]
48%	90%	98%	50%	–	CC(C)c1cc(C(C)C)c(S(=O)(=O)Nc2ccc3[nH]nc(-c4ccccc4)c3c2)c(C(C)C)c1 [Example 114, 2,4,6-Triisopropyl-N-(3-phenyl-1H-indazol-5-yl)-benzenesulfonamide]
96%	58%	92%	71%	–	Cc1cccc(-c2n[nH]c3ccc(NS(=O)(=O)c4ccccc4S(C)(=O)=O)cc23)c1 [Example 165, 2-Methanesulfonyl-N-(3-m-tolyl-1H-indazol-5-yl)-benzenesulfonamide]
91%	64%	74%	61%	–	CS(=O)(=O)c1ccccc1S(=O)(=O)Nc1ccc2[nH]nc(-c3ccccc3F)c2c1 [Example 188, N-[3-(2-Fluorophenyl)-1H-indazol-5-yl]-2-methanesulfonyl-benzenesulfonamide]

Second part, the molecule before the results:

Structure (SMILES)	inhibition at 10 µM (human FAK)	inhibition at 10 µM (human KDR enzyme)	inhibition at 10 µM (Aurora2 kinase)	inhibition at 10 µM [1]	KDR % inhib at 10 μM (human KDR enzyme)
CS(=O)(=O)c1ccccc1S(=O)(=O)Nc1ccc2[nH]nc(-c3ccc(Cl)cc3Cl)c2c1 [Example 163, N-[3-(2,4-Dichlorophenyl)-1H-indazol-5-yl]-2-methanesulfonyl-benzenesulfonamide]	61%	61%	64%	23%	–
CS(=O)(=O)c1ccccc1S(=O)(=O)Nc1ccc2[nH]nc(-c3cccnc3)c2c1 [Example 59, 2-Methylsulfonyl-N-(3-pyridin-3-yl-1H-indazol-5-yl)benzenesulfonamide]	95%	40%	100%	88%	–
CN(C)c1cccc2c(S(=O)(=O)Nc3cccc(-c4n[nH]c5ccc(NS(=O)(=O)c6ccccc6S(C)(=O)=O)cc45)c3)cccc12 [Example 166, N-{3-[5-(2-Methanesulfonyl-benzenesulfonylamino)-1H-indazol-3-yl]phenyl}-5-dimethylaminonaphthalene-1-sulfonamide]	53%	33%	61%	20%	–
COc1ccccc1-c1n[nH]c2ccc(NS(=O)(=O)c3ccccc3S(C)(=O)=O)cc12 [Example 183, 2-Methanesulfonyl-N-[3-(2-methoxyphenyl)-1H-indazol-5-yl]benzenesulfonamide]	82%	37%	90%	50%	–
CS(=O)(=O)c1ccccc1S(=O)(=O)Nc1ccc2[nH]nc(-c3cccc(O)c3)c2c1 [Example 200, N-[3-(3-Hydroxyphenyl)-1H-indazol-5-yl]-2-methanesulfonyl-benzenesulfonamide]	93%	64%	94%	73%	–
CC(C)c1cccc(-c2n[nH]c3ccc(NS(=O)(=O)c4ccccc4S(C)(=O)=O)cc23)c1 [Example 203, N-[3-(3-Isopropylphenyl)-1H-indazol-5-yl]-2-methanesulfonyl-benzenesulfonamide]	86%	39%	84%	59%	–
CS(=O)(=O)c1ccccc1S(=O)(=O)Nc1ccc2[nH]nc(-c3cccs3)c2c1 [Example 174, 2-Methanesulfonyl-N-(3-thiophen-2-yl-1H-indazol-5-yl)-benzenesulfonamide]	100%	–	93%	65%	53%
O=S(=O)(Nc1ccc2[nH]nc(-c3cc4ccccc4[nH]3)c2c1)c1cccc(F)c1 [Example 85, 3-Fluoro-N-[3-(1H-indol-2-yl)-1H-indazol-5-yl]benzenesulfonamide]	95%	99%	100%	99%	–
CS(=O)(=O)c1ccccc1S(=O)(=O)Nc1ccc2[nH]nc(-c3cccc(F)c3)c2c1 [Example 182, N-[3-(3-Fluorophenyl)-1H-indazol-5-yl]-2-methanesulfonyl-benzenesulfonamide]	96%	68%	94%	69%	–
CS(=O)(=O)c1ccccc1S(=O)(=O)Nc1ccc2[nH]nc(-c3cccc(Cl)c3)c2c1 [Example 177, N-[3-(3-Chlorophenyl)-1H-indazol-5-yl]-2-methanesulfonyl-benzenesulfonamide]	97%	71%	95%	80%	–
